Measured values taken from patent US11518760B2 (Liverpool School of Tropical Medicine, priority 2017, dated 2022).

system: C6/36 Aedes albopictus cell line infected with Wolbachia pipientis (Wolbachia strain wAlbB); experiment: In vitro insect cell line assay (anti-Wolbachia screen, SYTO 11 high content imaging); format: cell-based; settings: 168 h; C6/36 Aedes albopictus cells infected with Wolbachia pipientis wAlbB, 7 days incubation, SYTO 11 imaging; read-out: In vitro anti-Wolbachia activity
In short: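 Wolbachia wAlbB-infected C6/36 Aedes albopictus cells were exposed to compounds at a final 5 μM for 7 days at 26 °C, with DMSO-medium wells as untreated controls. Cells were then stained with SYTO 11 for 15 min, imaged by high-content microscopy and scored by texture analysis.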

Compound	EC50 [nM]
Cc1nc(NCc2cccnc2C(F)(F)F)c2cccnc2n1 [Example 177, 2-methyl-N-((2-(trifluoromethyl)pyridin-3-yl)methyl)pyrido[2,3-d]pyrimidin-4-amine]	1000 to 100000
C[C@H]1COCCN1c1nc(NCc2cccnc2C(F)(F)F)c2cccnc2n1 [Example 210, (S)-2-(3-methylmorpholino)-N-((2-(trifluoromethyl)pyridin-3-yl)methyl)pyrido[2,3-d]pyrimidin-4-amine]	1 to 10
FC(F)(F)c1nc(NCc2ccccc2C(F)(F)F)c2sccc2n1 [Example 56, 2-(trifluoromethyl)-N-(2-(trifluoromethyl)benzyl)thieno(3,2-d]pyrimidin-4-amine]	10 to 100
N#CC1CCN(c2nc(NCc3cccnc3C(F)(F)F)c3cccnc3n2)CC1 [Example 234, 1-(4-(((2-(trifluoromethyl)pyridin-3-yl)methyl)amino)pyrido[2,3-d]pyrimidin-2-yl)piperidine-4-carbonitrile]	1 to 10
FC(F)(F)c1ncccc1CNc1nc(N2CCCCC2C(F)(F)F)nc2ncccc12 (stereo not drawn) [Example 259, 2-(2-(trifluoromethyl)piperidin-1-yl)-N-((2-(trifluoromethyl)pyridin-3-yl)methyl)pyrido[2,3-d]pyrimidin-4-amine]	0.01 to 1
CC1(C)CN(c2nc(NCc3cccnc3C(F)(F)F)c3cccnc3n2)CCO1 [Example 239, 2-(2,2-dimethylmorpholino)-N-((2-(trifluororoethyl)pyridin-3-yl)methyl)pyrido[2,3-d]pyrimidin-4-amine]	0.01 to 1
FC(F)C1CN(c2nc(NCc3ccccc3C(F)(F)F)c3cccnc3n2)C1 [Example 276, 2-(3-(difluoromethyl)azetidin-1-yl)-N-(2-(trifluoromethyl)benzyl)pyrido[2,3-d]pyrimidin-4-amine]	< 0.01
FC(F)(F)c1ccc(CNc2nc(Cl)nc3ccccc23)cn1 [Example 115]	1000 to 100000
C[C@H]1COCCN1c1nc(N2CCC2c2ccccc2C(F)(F)F)c2cccnc2n1 (stereo partly drawn) [Example 291, (3S)-3-methyl-4-(4-(2-(2-(trifluoromethyl)phenyl)azetidin-1-yl)pyrido[2,3-d]pyrimidin-2-yl)morpholine]	0.01 to 1
CN(Cc1ccc(F)cc1C(F)(F)F)c1ncnc2ccccc12 [Example 75, N-(4-fluoro-2-(trifluoromethyl)benzyl)-N-methylquinazolin-4-amine]	100 to 1000
CC(C)Nc1nc(N2CCCN2c2ccccc2C(F)(F)F)c2cccnc2n1 [Example 189, N-isopropyl-4-(2-(2-(trifluoromethyl)phenyl)pyrazolidin-1-yl)pyrido[2,3-d]pyrimidin-2-amine]	1000 to 100000
C[C@H]1COCCN1c1nc(N2CCC2c2cccnc2C(F)(F)F)c2cccnc2n1 (stereo partly drawn) [Example 289, (3S)-3-methyl-4-(4-(2-(2-(trifluoromethyl)pyridin-3-yl)azetidin-1-yl)pyrido[2,3-d]pyrimidin-2-yl)morpholine]	0.01 to 1
FC1CCN(c2nc(NCc3cccnc3C(F)(F)F)c3cccnc3n2)CC1 [Example 195, 2-(4-fluoropiperidin-1-yl)-N-((2-(trifluoromethyl)pyridin-3-yl)methyl)pyrido[2,3-d]pyrimidin-4-amine]	1 to 10
Fc1ccccc1CNc1ncnc2ccsc12 [Example 22, N-(2-fluorobenzyl)thieno[3,2-d]pyrimidin-4-amine]	1000 to 100000
CC(C)Nc1nc(NCc2ccc(C(F)(F)F)nc2)c2sccc2n1 [Example 119, N^2-isopropyl-N^4-((6-(trifluoromethyl)pyridin-3-yl)methyl)thieno[3,2-d]pyrimidine-2,4-diamine]	100 to 1000
CC(C)N(C)c1nc(N2CCOCC2c2ccccc2C(F)(F)F)c2cccnc2n1 (stereo not drawn) [Example 188, N-isopropyl-N-methyl-4-(3-(2-(trifluoromethyl)phenyl)morpholino)pyrido[2,3-d]pyrimidin-2-amine]	1000 to 100000
FC(F)(F)c1ncccc1CNc1nc(N2CCOC(C3CC3)C2)nc2ncccc12 (stereo not drawn) [Example 278, 2-(2-cyclopropylmorpholino)-N-((2-(trifluoromethyl)pyridin-3-yl)methyl)pyrido[2,3-d]pyrimidin-4-amine]	0.01 to 1
FC(F)(F)c1ncccc1CNc1nc(N2CCC(Cl)C2)nc2ncccc12 (stereo not drawn) [Example 265, 2-(3-chloropyrrolidin-1-yl)-N-((2-(trifluoromethyl)pyridin-3-yl)methyl)pyrido[2,3-d]pyrimidin-4-amine]	< 0.01
FC1(F)CCN(Cc2nc(NCc3cccnc3C(F)(F)F)c3cccnc3n2)C1 [Example 230, 2-((3,3-difluoropyrrolidin-1-yl)methyl)-N-((2-(trifluoromethyl)pyridin-3-yl)methyl)pyrido[2,3-d]pyrimidin-4-amine]	1000 to 100000
FC(F)(F)c1ccccc1CNc1nc(NC2CNC2)nc2ncccc12 [Example 141, N^2-(azetidin-3-yl)-N^4-(2-(trifluoromethyl)benzyl)pyrido[2,3-d]pyrimidine-2,4-diamine]	100 to 1000
Cc1nc(N(C)C(C)c2ccccc2C(F)(F)F)c2sc(C=O)cc2n1 (stereo not drawn) [Example 77]	100 to 1000
FC1(F)CC2(CCN(c3nc(NCc4ccccc4C(F)(F)F)c4cccnc4n3)CC2)C1 [Example 260, 2-(2,2-difluoro-7-azaspiro[3.5]nonan-7-yl)-N-(2-(trifluoromethyl)benzyl)pyrido[2,3-d]pyrimidin-4-amine]	1 to 10
FC(F)C1CN(c2nc(NCc3cccnc3C(F)(F)F)c3cccnc3n2)CCO1 (stereo not drawn) [Example 282, 2-(2-(difluoromethyl)morpholino)-N-((2-(trifluoromethyl)pyridin-3-yl)methyl)pyrido[2,3-d]pyrimidin-4-amine]	0.01 to 1
N#CC1CN(c2nc(NCc3cccnc3C(F)(F)F)c3cccnc3n2)CCO1 (stereo not drawn) [Example 257, 4-(4-(((2-(trifluoromethyl)pyridin-3-yl)methyl)amino)pyrido[2,3-d]pyrimidin-2-yl)morpholine-2-carbonitrile]	10 to 100
FC(F)(F)c1ccccc1CNc1nc(N2CC3CC(C2)O3)nc2ncccc12 [Example 300, 2-(6-oxa-3-azabicyelo[3.1.1]heptan-3-yl)-N-(2-(trifluoromethyl)benzyl)pyrido[2,3-d]pyrimidin-4-amine]	< 0.01
COc1cc2c(NCc3cccnc3C(F)(F)F)nc(N3CCOCC3C)nc2nc1OC (stereo not drawn) [Example 308, 6,7-dimethoxy-2-(3-methylmorphoIino)-N-((2-(trifluoromethyl)pyridin-3-yl)methyl)pyrido[2,3-d]pyrimidin-4-amine]	1000 to 100000
CC(C)Nc1nc(NCc2ccc(S(C)(=O)=O)cc2)c2sccc2n1 [Example 118, N^2-isopropyl-N^4-(4-(methylsuifonyl)benzyl)thieno[3,2-d]pyrimidine-2,4-diamine]	1000 to 100000
FC(F)(F)c1ccccc1CNc1nc(CN2CC(C(F)(F)F)C2)nc2ncccc12 [Example 226]	100 to 1000
FC(F)O[C@@H]1CCN(c2nc(NCc3cccnc3C(F)(F)F)c3cccnc3n2)C1 [Example 280, (R)-2-(3-(difluoromethoxy)pyrrolidin-1-yl)-N-((2-(trifluoromethyl)pyridin-3-yl)methyl)pyrido[2,3-d]pyrimidin-4-amine]	0.01 to 1
FC(F)(F)c1ncccc1CNc1nc(N2CCOCC2)nc2ncccc12 [Example 192, 2-morpholino-N-((2-(trifluoromethyl)pyridin-3-yl)methyl)pyrido[2,3-d]pyrimidin-4-amine]	10 to 100
